Targets include CAMK1G (Homo sapiens, UniProt Q96NX5); CAMK2B (Homo sapiens, UniProt Q13554); EphA2 (Homo sapiens, UniProt P29317); SRC (Homo sapiens, UniProt P12931).
Common to all, as to assay: biochemical
What all share (parameters): Thermal shift (DSF, SYPRO Orange) Tm shift of recombinant kinase domains at 10 uM compound

The next assay has as its target T1, BRPF1 (Homo sapiens, UniProt P55201).
T1 sequence (P55201 1-1214): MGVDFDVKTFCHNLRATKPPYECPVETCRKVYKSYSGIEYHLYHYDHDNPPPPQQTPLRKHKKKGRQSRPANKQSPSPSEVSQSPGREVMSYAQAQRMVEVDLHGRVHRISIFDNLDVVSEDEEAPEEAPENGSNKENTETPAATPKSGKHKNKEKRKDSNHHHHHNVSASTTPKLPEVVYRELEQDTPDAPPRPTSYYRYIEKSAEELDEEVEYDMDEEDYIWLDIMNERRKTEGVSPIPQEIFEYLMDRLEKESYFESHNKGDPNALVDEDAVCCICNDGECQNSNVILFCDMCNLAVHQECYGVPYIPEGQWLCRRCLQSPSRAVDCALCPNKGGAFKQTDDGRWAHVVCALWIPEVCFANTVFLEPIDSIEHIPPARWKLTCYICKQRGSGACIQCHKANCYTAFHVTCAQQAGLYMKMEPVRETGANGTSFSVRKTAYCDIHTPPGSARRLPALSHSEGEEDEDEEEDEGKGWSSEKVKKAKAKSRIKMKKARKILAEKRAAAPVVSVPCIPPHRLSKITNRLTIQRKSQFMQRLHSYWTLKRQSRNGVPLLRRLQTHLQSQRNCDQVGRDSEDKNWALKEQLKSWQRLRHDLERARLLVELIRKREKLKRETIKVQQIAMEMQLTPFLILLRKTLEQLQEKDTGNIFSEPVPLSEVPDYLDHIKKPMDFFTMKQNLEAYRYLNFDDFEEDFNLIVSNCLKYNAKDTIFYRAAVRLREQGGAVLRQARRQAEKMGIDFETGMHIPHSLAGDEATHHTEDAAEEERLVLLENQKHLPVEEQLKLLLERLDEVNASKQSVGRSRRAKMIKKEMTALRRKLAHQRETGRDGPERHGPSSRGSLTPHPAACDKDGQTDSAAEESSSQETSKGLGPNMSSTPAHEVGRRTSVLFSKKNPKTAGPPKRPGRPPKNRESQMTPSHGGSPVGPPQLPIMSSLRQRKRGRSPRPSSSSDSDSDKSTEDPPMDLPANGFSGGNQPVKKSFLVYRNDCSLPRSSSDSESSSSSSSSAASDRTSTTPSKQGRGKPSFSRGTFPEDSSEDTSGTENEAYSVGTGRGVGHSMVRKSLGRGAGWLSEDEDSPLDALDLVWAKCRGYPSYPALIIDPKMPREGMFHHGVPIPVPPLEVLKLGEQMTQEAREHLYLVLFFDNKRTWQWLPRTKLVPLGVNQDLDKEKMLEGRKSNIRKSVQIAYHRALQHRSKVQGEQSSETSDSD

The target in another assay is T2, MRCKa (Homo sapiens, UniProt Q5VT25).
T2 construct: gene CDC42BPA
T2 sequence (Q5VT25 whole entry): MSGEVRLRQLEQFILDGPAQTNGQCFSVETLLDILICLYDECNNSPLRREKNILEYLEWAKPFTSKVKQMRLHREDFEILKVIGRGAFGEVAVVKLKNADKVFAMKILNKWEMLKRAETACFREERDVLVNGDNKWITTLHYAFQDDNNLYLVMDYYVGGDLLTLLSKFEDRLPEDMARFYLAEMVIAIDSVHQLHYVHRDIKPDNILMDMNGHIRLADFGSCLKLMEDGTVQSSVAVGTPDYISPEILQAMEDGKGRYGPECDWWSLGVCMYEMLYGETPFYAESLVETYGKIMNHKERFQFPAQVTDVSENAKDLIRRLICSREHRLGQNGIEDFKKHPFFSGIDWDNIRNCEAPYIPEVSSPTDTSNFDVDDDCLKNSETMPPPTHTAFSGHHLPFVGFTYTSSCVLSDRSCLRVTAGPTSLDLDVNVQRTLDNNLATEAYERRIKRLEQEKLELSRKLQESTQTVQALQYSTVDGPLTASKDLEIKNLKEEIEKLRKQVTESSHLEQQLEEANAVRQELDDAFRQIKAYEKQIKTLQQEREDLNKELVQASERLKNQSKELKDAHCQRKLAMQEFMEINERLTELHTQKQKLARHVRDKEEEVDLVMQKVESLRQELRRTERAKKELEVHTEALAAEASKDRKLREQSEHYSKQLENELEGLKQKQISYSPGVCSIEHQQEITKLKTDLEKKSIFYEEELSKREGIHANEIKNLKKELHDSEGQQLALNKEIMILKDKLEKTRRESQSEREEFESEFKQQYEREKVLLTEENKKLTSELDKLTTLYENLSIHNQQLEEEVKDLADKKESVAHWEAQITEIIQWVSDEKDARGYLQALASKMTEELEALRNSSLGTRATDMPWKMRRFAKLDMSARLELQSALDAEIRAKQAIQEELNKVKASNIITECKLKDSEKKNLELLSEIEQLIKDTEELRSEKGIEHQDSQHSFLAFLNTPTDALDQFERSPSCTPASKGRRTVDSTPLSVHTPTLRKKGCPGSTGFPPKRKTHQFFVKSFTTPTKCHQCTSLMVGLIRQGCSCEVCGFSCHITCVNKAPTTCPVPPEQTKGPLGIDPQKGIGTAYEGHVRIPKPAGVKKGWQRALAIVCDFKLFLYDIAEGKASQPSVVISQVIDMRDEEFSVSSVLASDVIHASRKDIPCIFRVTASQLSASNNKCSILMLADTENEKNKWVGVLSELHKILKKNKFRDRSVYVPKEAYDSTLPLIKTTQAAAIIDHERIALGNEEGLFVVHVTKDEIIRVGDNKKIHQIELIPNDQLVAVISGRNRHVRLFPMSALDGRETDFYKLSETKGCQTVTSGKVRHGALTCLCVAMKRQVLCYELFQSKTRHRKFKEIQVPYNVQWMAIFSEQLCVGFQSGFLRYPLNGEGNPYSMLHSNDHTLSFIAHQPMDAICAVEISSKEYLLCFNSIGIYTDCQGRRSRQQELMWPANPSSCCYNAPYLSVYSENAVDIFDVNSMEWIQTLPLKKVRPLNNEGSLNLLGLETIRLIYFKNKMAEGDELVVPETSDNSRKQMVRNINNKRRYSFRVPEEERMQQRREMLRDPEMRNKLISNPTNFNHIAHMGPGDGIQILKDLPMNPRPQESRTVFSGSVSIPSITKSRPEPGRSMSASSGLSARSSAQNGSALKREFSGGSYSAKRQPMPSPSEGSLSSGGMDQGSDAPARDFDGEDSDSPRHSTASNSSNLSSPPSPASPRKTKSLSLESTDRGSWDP

A further assay addresses T3, PCTAIRE1 (Homo sapiens, UniProt Q00536).
T3 construct: gene CDK16

Read-outs that look alike come from different tables or passages of the source.

T3 sequence (Q00536 whole entry): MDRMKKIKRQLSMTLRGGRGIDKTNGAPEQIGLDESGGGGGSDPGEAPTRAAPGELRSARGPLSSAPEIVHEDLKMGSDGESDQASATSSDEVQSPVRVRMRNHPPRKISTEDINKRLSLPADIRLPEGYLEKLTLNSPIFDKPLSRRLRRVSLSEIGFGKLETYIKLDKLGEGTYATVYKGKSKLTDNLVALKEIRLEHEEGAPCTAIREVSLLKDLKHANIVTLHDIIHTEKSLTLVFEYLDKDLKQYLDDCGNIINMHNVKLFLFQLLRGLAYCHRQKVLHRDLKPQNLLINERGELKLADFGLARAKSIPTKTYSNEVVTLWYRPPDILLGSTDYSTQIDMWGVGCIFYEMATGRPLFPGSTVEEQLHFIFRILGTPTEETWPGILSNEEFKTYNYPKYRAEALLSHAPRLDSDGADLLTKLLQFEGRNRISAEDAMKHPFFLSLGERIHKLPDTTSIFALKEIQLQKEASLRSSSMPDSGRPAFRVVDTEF
Chain of CAMK2B (Q13554 whole entry): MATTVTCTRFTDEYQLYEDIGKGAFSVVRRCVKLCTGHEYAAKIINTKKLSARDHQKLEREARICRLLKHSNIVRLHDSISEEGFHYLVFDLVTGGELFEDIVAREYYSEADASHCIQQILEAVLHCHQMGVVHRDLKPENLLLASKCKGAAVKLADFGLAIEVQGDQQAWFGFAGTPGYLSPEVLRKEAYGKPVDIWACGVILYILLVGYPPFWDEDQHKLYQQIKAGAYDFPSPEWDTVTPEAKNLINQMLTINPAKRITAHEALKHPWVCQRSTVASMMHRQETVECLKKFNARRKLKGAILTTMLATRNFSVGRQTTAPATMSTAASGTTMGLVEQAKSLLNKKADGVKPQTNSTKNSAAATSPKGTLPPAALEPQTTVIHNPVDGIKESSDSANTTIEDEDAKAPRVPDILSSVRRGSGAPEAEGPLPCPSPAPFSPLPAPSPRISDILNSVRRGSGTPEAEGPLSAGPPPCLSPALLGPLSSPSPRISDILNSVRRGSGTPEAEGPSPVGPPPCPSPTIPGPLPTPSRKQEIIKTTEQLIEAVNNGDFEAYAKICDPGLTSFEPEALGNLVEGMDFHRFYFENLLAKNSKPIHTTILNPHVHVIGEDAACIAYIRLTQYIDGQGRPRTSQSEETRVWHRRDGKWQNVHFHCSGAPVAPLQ
Chain of CAMK1G (Q96NX5 whole entry): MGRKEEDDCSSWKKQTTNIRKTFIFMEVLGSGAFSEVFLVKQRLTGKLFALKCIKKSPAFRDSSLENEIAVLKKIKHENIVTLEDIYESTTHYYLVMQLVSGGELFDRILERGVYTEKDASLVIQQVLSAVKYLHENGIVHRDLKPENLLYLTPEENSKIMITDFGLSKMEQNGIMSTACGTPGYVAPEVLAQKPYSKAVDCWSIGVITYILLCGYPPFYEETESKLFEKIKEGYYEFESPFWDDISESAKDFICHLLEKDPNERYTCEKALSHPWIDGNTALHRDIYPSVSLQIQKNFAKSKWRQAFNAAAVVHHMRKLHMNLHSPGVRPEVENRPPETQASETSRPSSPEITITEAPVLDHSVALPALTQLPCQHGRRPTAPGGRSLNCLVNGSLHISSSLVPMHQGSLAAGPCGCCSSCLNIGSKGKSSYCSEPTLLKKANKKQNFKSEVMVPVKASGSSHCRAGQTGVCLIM
Chain of EphA2 (P29317 whole entry): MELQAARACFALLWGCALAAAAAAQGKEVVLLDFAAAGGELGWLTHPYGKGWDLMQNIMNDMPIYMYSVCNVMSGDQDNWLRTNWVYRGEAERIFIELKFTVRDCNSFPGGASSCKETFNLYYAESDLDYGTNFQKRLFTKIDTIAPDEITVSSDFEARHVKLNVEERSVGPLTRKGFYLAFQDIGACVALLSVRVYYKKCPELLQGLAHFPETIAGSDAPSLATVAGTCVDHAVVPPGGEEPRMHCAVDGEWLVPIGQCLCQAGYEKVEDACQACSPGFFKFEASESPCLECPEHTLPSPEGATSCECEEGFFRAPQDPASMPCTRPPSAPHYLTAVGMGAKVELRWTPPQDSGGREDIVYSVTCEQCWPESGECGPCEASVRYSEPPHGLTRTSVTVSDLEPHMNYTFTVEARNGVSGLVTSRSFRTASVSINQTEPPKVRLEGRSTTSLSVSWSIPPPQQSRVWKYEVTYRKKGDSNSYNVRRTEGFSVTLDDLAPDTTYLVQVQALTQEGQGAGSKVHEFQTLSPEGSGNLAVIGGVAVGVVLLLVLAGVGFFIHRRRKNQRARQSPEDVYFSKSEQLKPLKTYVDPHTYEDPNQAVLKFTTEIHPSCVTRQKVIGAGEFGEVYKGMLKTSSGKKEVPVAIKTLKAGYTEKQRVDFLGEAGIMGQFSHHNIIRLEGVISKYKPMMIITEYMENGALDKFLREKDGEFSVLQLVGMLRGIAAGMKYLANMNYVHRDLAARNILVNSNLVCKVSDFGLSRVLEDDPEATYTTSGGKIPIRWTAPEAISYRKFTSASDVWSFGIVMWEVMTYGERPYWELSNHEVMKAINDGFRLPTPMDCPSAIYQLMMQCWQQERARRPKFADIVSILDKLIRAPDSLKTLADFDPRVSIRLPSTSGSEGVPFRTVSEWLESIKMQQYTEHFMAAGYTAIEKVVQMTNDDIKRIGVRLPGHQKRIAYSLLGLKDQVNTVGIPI
Chain of SRC (P12931 whole entry): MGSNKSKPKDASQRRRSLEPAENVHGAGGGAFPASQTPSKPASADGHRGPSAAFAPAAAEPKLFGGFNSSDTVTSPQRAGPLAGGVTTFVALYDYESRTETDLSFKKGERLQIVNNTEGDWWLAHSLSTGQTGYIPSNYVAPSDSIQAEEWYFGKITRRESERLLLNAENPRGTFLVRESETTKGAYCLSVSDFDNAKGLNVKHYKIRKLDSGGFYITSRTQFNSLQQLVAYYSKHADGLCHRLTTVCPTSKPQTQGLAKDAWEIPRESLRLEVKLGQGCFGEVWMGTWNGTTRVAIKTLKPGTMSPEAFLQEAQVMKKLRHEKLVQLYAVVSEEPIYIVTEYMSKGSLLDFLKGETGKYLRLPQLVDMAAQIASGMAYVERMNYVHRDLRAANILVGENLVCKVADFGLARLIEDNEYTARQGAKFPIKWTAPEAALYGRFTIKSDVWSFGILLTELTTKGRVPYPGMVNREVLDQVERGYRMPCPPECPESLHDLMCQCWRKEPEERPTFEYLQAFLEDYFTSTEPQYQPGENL

Consider `COc1ccc(OC(C)C)cc1Nc1cncc(-c2ccc(C(=O)O)cc2)n1` [7c], for which the ΔTm at 10 µM on BRPF1 (read-out: 7c) was 0 °C; at CAMK1G (read-out: 7c) it was -1 °C; on CAMK2B (read-out: 7c) it was 1 °C; at EphA2 (read-out: 7c) it was 1 °C; on MRCKa (read-out: 7c) it was 0 °C; at PCTAIRE1 (read-out: 7c) it was 2 °C. In addition, the ΔTm at 10 µM at SRC (read-out: 7c) came out at 3 °C.
Regarding `CC(C)Oc1ccc2ccn(-c3cncc(-c4ccc(C(=O)O)cc4)n3)c2c1` [6c], the ΔTm at 10 µM at BRPF1 (read-out: 6c) was -1 °C; on CAMK1G (read-out: 6c) it was 0 °C; on CAMK2B (read-out: 6c), 2 °C; at EphA2 (read-out: 6c), 3 °C; at MRCKa (read-out: 6c) it was -1 °C; on PCTAIRE1 (read-out: 6c) it was 5 °C. Further, at SRC (read-out: 6c), the ΔTm at 10 µM was found to be 3 °C.
On to `CC(C)Nc1ccc2cnn(-c3cncc(-c4ccc(C(=O)O)cc4)n3)c2c1` [compound 2, 2], for which the ΔTm at 10 µM on BRPF1 (read-out: 2) turned out to be 2 °C; on CAMK1G (read-out: 2) it was 2 °C; on CAMK2B (read-out: 2), 2 °C; on EphA2 (read-out: 2) it was 1 °C; at MRCKa (read-out: 2) it was 0 °C; at PCTAIRE1 (read-out: 2), 2 °C. The ΔTm at 10 µM on SRC (read-out: 2) was found to be 3 °C.

These data come from publication doi:10.1101/2023.12.04.569845, “Identification of 4-(6-((2-methoxyphenyl)amino)pyrazin-2-yl)benzoic acids as CSNK2A inhibitors with antiviral activity and improved selectivity over PIM3” (bioRxiv, 2023).
